Source: PMC11532494 (Nature Communications, 2024)
Values joined by “and” are separate entries in the source; they are usually repeats but may differ in a detail not shown here. Equal entries are not always repeated. Where two headings read alike, the source gives them in different places.

Assays:
KpHdaH (1b) = KpHdaH (1b) (Klebsiella pneumoniae, UniProt A0A377Z5F6); format: biochemical; conditions: KpKDAC (1b); single samples (replicates)
RsPrpH (1b) = assay: Acetyl-polyamine deacetylase assay; format: biochemical, Rhizorhabdus sp.; conditions: RsPrpH 3µM; single samples (replicates)
PA1409 = PA1409 (Pseudomonas aeruginosa, UniProt Q9I3T5); assay: Acetyl-polyamine deacetylase assay (positive control); format: biochemical; conditions: for acetate released, g/l / acetate released, mM / mM normalized to enzyme concentration: PA1409 (positive control enzyme), single samples (replicates); for A1-A2: absorbance difference between the two time points; for A1-A2 / (A1-A2)-B: sheet Figure 2d; for (A1-A2)-B: absorbance difference minus mean blank
PA1409, sequence (Q9I3T5 whole entry): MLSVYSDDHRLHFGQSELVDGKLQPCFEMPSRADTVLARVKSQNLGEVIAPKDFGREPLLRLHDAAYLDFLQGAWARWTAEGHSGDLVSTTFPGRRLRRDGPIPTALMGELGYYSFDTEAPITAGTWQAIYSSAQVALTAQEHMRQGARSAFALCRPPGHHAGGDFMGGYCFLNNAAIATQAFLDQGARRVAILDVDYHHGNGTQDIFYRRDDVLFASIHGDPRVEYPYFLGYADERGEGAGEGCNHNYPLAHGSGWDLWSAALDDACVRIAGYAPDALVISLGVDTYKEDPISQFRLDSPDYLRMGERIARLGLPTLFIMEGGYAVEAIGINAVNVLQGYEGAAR

VcHdaH (5b) = assay: Acetyl-polyamine deacetylase assay; format: biochemical, Vibrio cholerae; conditions: VcHdaH (5b) 6µM; single samples (replicates)
LcApaH (3) = LcApaH (3) (Legionella cherrii, UniProt A0A0W0SGS1); format: biochemical
LcApaH (3), sequence (A0A0W0SGS1 1-425): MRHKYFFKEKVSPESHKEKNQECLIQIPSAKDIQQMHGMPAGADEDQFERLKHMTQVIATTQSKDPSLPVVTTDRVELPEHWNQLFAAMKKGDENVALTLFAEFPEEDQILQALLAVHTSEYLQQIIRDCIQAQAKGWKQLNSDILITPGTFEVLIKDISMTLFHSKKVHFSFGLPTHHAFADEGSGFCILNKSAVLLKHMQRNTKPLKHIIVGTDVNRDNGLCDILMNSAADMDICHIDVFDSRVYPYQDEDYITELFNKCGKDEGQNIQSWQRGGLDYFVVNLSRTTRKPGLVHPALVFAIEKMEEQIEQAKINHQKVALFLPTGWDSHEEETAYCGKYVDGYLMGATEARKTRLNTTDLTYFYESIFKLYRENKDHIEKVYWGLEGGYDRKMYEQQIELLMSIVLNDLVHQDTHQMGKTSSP

VsHdaH (1b) = format: biochemical, Vibrio sp.; conditions: VsHdaH (1b) 3µM; single samples (replicates)
BsAcuC (2c) = molecular target: T1, BsAcuC (2c) (Bacillus subtilis, UniProt P39067); assay: Acetyl-polyamine deacetylase assay; format: biochemical; conditions: BsAcuC (2c) 3µM; single samples (replicates)
T1 construct: made in house; host or cells: E. coli BL21 (DE3)
T1 sequence (P39067 1-387): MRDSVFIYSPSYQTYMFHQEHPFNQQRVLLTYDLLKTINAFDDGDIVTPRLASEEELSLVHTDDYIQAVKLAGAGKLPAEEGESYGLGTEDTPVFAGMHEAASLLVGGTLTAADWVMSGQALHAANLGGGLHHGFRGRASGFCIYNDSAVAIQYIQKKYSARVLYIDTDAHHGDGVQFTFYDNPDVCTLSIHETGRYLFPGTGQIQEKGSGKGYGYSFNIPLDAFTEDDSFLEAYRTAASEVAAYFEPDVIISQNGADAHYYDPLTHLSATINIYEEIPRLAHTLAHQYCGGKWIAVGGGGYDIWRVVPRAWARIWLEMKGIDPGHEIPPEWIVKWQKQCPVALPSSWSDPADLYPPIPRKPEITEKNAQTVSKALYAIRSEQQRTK

RwDmhA (1b) = RwDmhA (1b) (Rhizorhabdus wittichii, UniProt A0A067XIQ6); format: biochemical; conditions: RwDmhA (1b) 3µM; single samples (replicates)
RwDmhA (1b), sequence (A0A067XIQ6 1-369): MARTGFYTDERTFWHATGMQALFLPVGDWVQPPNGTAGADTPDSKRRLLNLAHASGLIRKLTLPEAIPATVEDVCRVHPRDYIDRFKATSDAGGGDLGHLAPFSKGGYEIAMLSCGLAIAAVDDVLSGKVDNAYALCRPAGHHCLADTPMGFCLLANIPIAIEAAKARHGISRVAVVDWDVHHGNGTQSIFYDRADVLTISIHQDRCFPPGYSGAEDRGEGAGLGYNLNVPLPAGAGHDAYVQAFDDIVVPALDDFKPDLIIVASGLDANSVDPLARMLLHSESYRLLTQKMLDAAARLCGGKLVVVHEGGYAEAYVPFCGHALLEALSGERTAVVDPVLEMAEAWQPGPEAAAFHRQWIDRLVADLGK

PsApaH (4) = PsApaH (4) (Pseudomonas sp. M30-35, UniProt A0A1Y0KY79); assay: Acetyl-polyamine deacetylase assay; format: biochemical; conditions: single samples (replicates)
PsApaH (4), sequence (A0A1Y0KY79 1-342 limits assumed): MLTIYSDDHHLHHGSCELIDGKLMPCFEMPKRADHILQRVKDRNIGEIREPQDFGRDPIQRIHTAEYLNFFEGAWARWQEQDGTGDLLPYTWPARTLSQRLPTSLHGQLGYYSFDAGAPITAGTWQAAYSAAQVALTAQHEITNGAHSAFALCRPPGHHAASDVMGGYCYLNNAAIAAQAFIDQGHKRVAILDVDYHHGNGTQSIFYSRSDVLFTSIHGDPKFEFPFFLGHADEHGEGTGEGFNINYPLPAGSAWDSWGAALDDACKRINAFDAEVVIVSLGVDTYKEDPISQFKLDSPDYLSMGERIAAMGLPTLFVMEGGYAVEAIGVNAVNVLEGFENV

LpApaH (3) = LpApaH (3) (Legionella pneumophila, UniProt A0A2S6EWV0); format: biochemical
LpApaH (3), sequence (A0A2S6EWV0 1-426): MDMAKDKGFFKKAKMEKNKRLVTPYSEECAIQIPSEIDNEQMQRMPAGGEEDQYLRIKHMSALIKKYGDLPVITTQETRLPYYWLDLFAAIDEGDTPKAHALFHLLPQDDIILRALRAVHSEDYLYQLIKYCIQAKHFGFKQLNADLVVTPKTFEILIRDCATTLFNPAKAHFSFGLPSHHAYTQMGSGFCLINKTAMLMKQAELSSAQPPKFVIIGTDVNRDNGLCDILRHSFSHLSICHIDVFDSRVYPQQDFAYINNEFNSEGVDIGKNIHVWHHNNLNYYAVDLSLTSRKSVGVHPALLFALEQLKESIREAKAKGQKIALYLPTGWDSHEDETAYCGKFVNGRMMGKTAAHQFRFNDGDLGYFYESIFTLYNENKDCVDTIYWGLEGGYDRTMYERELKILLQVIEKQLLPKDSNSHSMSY

[1] = LcApaH (3), single samples (replicates)

KpHdaH (1b), sequence (A0A377Z5F6 1-371): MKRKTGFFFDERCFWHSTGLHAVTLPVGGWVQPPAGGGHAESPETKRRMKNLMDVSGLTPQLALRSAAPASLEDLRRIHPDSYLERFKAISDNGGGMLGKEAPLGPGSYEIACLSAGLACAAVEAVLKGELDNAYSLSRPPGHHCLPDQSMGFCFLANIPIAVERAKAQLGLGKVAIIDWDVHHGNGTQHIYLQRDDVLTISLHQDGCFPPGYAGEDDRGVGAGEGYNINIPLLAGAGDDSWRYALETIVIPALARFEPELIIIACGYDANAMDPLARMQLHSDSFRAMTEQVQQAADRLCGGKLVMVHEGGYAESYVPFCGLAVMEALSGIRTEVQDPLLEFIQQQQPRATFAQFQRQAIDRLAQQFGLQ

CC(=O)NCCCCCN [N1-acetyl-cadaverine]
acetate released, g/l (KpHdaH (1b)): 0.005 g/L and 0.003 g/L and 0.002 g/L | acetate released, mM (KpHdaH (1b)): 0.0755 mM and 0.044 mM and 0.0346 mM | mM normalized to enzyme concentration (KpHdaH (1b)): 0.0151 mM and 0.0088 mM and 0.00692 mM | acetate released, g/l (RsPrpH (1b)): 0.02441 g/L and 0.02154 g/L and 0.02285 g/L | acetate released, mM (RsPrpH (1b)): 0.4065 mM and 0.3587 mM and 0.3804 mM | mM normalized to enzyme concentration (RsPrpH (1b)): 0.1355 mM and 0.1196 mM and 0.1268 mM | acetate released, g/l (PA1409): 0.1346 g/L | acetate released, mM (PA1409): 2.242 mM | mM normalized to enzyme concentration (PA1409): 22.4156 mM | A1-A2 (PA1409): 0.543 | (A1-A2)-B (PA1409): 0.5015 | acetate released, g/l (VcHdaH (5b)): 0.0009138 g/L and -0.0001305 g/L and 0.0003916 g/L | acetate released, mM (VcHdaH (5b)): 0.01522 mM and -0.002174 mM and 0.006522 mM | mM normalized to enzyme concentration (VcHdaH (5b)): 0.002536 mM and -0.0003623 mM and 0.001087 mM | acetate released, g/l (LcApaH (3); [1]): 0.0133 g/L and 0.011 g/L | acetate released, mM (LcApaH (3); [1]): 0.22 mM and 0.18 mM | mM normalized to enzyme concentration (LcApaH (3); [1]): 0.22 mM and 0.18 mM | acetate released, g/l (VsHdaH (1b)): 0.004047 g/L and 0.005091 g/L and 0.00483 g/L | acetate released, mM (VsHdaH (1b)): 0.06739 mM and 0.08478 mM and 0.08044 mM | mM normalized to enzyme concentration (VsHdaH (1b)): 0.02246 mM and 0.02826 mM and 0.02681 mM | acetate released, g/l (BsAcuC (2c)): 0.0001305 g/L and -0.0003916 g/L and -0.01371 g/L | acetate released, mM (BsAcuC (2c)): 0.002174 mM and -0.006522 mM and -0.2283 mM | mM normalized to enzyme concentration (BsAcuC (2c)): 0.0007246 mM and -0.002174 mM and -0.07609 mM | acetate released, g/l (RwDmhA (1b)): 0.01449 g/L and 0.01841 g/L and 0.0252 g/L | acetate released, mM (RwDmhA (1b)): 0.2413 mM and 0.3065 mM and 0.4196 mM | mM normalized to enzyme concentration (RwDmhA (1b)): 0.08044 mM and 0.1022 mM and 0.1399 mM | acetate released, g/l (PsApaH (4)): 0.08943 g/L and 0.09204 g/L and 0.09674 g/L | acetate released, mM (PsApaH (4)): 1.489 mM and 1.533 mM and 1.611 mM | acetate released, g/l (LpApaH (3)): 0.0236 g/L and 0.04 g/L | acetate released, mM (LpApaH (3)): 0.39 mM and 0.70 mM | mM normalized to enzyme concentration (LpApaH (3)): 0.20 mM and 0.35 mM

CC(=O)NCCCCN [N1-acetyl-putrescine]
acetate released, g/l (KpHdaH (1b)): 0.01615 g/L and 0.02135 g/L and 0.02198 g/L | acetate released, mM (KpHdaH (1b)): 0.2105 mM and 0.2784 mM and 0.2865 mM | mM normalized to enzyme concentration (KpHdaH (1b)): 0.02105 mM and 0.02784 mM and 0.02865 mM | acetate released, g/l (RsPrpH (1b)): 0.003525 g/L and 0.00483 g/L and 0.003003 g/L | acetate released, mM (RsPrpH (1b)): 0.0587 mM and 0.08044 mM and 0.05 mM | mM normalized to enzyme concentration (RsPrpH (1b)): 0.01957 mM and 0.02681 mM and 0.01667 mM | A1-A2 (PA1409): 0.278 and 0.275 | (A1-A2)-B (PA1409): 0.21 and 0.207 | acetate released, g/l (VcHdaH (5b)): -0.003786 g/L and 0.0001305 g/L and 0.01136 g/L | acetate released, mM (VcHdaH (5b)): -0.06304 mM and 0.002174 mM and 0.1891 mM | mM normalized to enzyme concentration (VcHdaH (5b)): -0.01051 mM and 0.0003623 mM and 0.03152 mM | acetate released, g/l (LcApaH (3)): 0.002824 g/L and 0.001479 g/L | acetate released, mM (LcApaH (3)): 0.04702 mM and 0.02463 mM | mM normalized to enzyme concentration (LcApaH (3)): 0.03135 mM and 0.01642 mM | acetate released, g/l (VsHdaH (1b)): 0.001436 g/L and 0.0003916 g/L and -0.0006527 g/L | acetate released, mM (VsHdaH (1b)): 0.02391 mM and 0.006522 mM and -0.01087 mM | mM normalized to enzyme concentration (VsHdaH (1b)): 0.007971 mM and 0.002174 mM and -0.003623 mM | acetate released, g/l (BsAcuC (2c)): 0.001436 g/L and 0.00248 g/L and -0.003264 g/L | acetate released, mM (BsAcuC (2c)): 0.02391 mM and 0.0413 mM and -0.05435 mM | mM normalized to enzyme concentration (BsAcuC (2c)): 0.007971 mM and 0.01377 mM and -0.01812 mM | acetate released, g/l (RwDmhA (1b)): 0.001436 g/L and 0.006919 g/L and 0.0009138 g/L | acetate released, mM (RwDmhA (1b)): 0.02391 mM and 0.1152 mM and 0.01522 mM | mM normalized to enzyme concentration (RwDmhA (1b)): 0.007971 mM and 0.03841 mM and 0.005072 mM

CC(=O)NCCCNCCCCN [N1-acetyl-spermidine]
acetate released, g/l (KpHdaH (1b)): 0.007111 g/L and 0.006667 g/L | mM normalized to enzyme concentration (KpHdaH (1b)): 0.02368 mM and 0.0222 mM | acetate released, g/l (RsPrpH (1b)): 0.0006527 g/L and 0.002219 g/L | acetate released, mM (RsPrpH (1b)): 0.01087 mM and 0.03696 mM | mM normalized to enzyme concentration (RsPrpH (1b)): 0.003623 mM and 0.01232 mM | A1-A2 (PA1409): 0.377 and 0.374 | (A1-A2)-B (PA1409): 0.331 and 0.328 | acetate released, g/l (VcHdaH (5b)): -0.0009138 g/L and 0.0001305 g/L | acetate released, mM (VcHdaH (5b)): -0.01522 mM and 0.002174 mM | mM normalized to enzyme concentration (VcHdaH (5b)): -0.002536 mM and 0.0003623 mM | acetate released, g/l (VsHdaH (1b)): -0.0001305 g/L | acetate released, mM (VsHdaH (1b)): -0.002174 mM | mM normalized to enzyme concentration (VsHdaH (1b)): -0.0007246 mM | acetate released, g/l (BsAcuC (2c)): 0.001175 g/L and 0.0003916 g/L | acetate released, mM (BsAcuC (2c)): 0.01957 mM and 0.006522 mM | mM normalized to enzyme concentration (BsAcuC (2c)): 0.006522 mM and 0.002174 mM | acetate released, g/l (RwDmhA (1b)): -0.0001305 g/L and -0.0003916 g/L | acetate released, mM (RwDmhA (1b)): -0.002174 mM and -0.006522 mM | mM normalized to enzyme concentration (RwDmhA (1b)): -0.0007246 mM and -0.002174 mM | acetate released, g/l (PsApaH (4)): 0.0007937 g/L and 0.001587 g/L | acetate released, mM (PsApaH (4)): 0.01322 mM and 0.02643 mM

CC(=O)NCCCNCCCCNCCCNC(C)=O [N1/N12 diacetyl-spermine]
acetate released, g/l (KpHdaH (1b)): 0.007868 g/L and 0.006091 g/L and 0.003807 g/L | acetate released, mM (KpHdaH (1b)): 0.131 mM and 0.1014 mM and 0.0634 mM | mM normalized to enzyme concentration (KpHdaH (1b)): 0.0262 mM and 0.02029 mM and 0.01268 mM | acetate released, g/l (RsPrpH (1b)): 0.002219 g/L and 0.001175 g/L | acetate released, mM (RsPrpH (1b)): 0.03696 mM and 0.01957 mM | mM normalized to enzyme concentration (RsPrpH (1b)): 0.01232 mM and 0.006522 mM | acetate released, g/l (PA1409): 0.2048 g/L and 0.2032 g/L | acetate released, mM (PA1409): 3.41 mM and 3.383 mM | mM normalized to enzyme concentration (PA1409): 34.0974 mM and 33.8331 mM | acetate released, g/l (VcHdaH (5b)): 0.001436 g/L and 0.0001305 g/L and 0.0006527 g/L | acetate released, mM (VcHdaH (5b)): 0.02391 mM and 0.002174 mM and 0.01087 mM | mM normalized to enzyme concentration (VcHdaH (5b)): 0.003986 mM and 0.0003623 mM and 0.001812 mM | acetate released, g/l (LcApaH (3)): 0.00344 g/L | acetate released, mM (LcApaH (3)): 0.06 mM | mM normalized to enzyme concentration (LcApaH (3)): 0.06 mM | acetate released, g/l (VsHdaH (1b)): 0.00248 g/L and 0.0003916 g/L | acetate released, mM (VsHdaH (1b)): 0.0413 mM and 0.006522 mM | mM normalized to enzyme concentration (VsHdaH (1b)): 0.01377 mM and 0.002174 mM and 0.003623 mM | acetate released, g/l (BsAcuC (2c)): 0.003525 g/L and 0.003264 g/L and -0.001436 g/L | acetate released, mM (BsAcuC (2c)): 0.0587 mM and 0.05435 mM and -0.02391 mM | mM normalized to enzyme concentration (BsAcuC (2c)): 0.01957 mM and 0.01812 mM and -0.007971 mM | acetate released, g/l (RwDmhA (1b)): 0.001697 g/L and 0.004569 g/L | acetate released, mM (RwDmhA (1b)): 0.02826 mM and 0.07609 mM | mM normalized to enzyme concentration (RwDmhA (1b)): 0.00942 mM and 0.02536 mM | acetate released, g/l (LpApaH (3)): 0.003439 g/L and 0.00291 g/L | acetate released, mM (LpApaH (3)): 0.05727 mM and 0.04846 mM | mM normalized to enzyme concentration (LpApaH (3)): 0.02863 mM and 0.02423 mM
